Columns and labels:
FGFR1 = target: T1, FGFR1 (Homo sapiens, UniProt P11362); test: FGFR1 Biochemical Caliper Assay (KinEASE-TK kit); details: ratio FGFR1/FGFR2 of the biochemical assay
T1 construct: purchased Carna 08-133
In short: (§1)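 KinEASE-TK HTRF readout: enzyme at 0.2 nM (FGFR1, FGFR3) preincubated 10 min at RT with 10-point 3-fold compound dilutions before TK-substrate/ATP start.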

SNU16 cells = test: SNU16 Cancer Cell Line Proliferation Assay (CellTiter-Glo); format: cell-based; details: Homo sapiens, SNU-16, 72 h
In short: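 SNU16 cells at 5000/well exposed to 9-point 3-fold serial compound dilutions (DMSO control) for 72 h at 37 °C, 5% CO2. Viability read by luminescence; IC50 calculated from dose-response.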

[1] = Pharmacokinetics in SD Rat; format: in vivo, Sprague-Dawley (SD) rat; details: Sprague-Dawley, male SD rat, plasma; for clearance: IV 3 mg/kg; for AUC(0-inf) / half-life / Cmax: PO 15 mg/kg (IV used for Clearance); for Cmax: read-out: Cmax
Protocol: Animal studies were done as approved protocols by the Institutional Animal Care and Use Committee at INVIVO Biotech Co., Ltd.
Animal information: Sprague-Dawley (SD) rat, SPF, 6-8 weeks, Male, weight 200-250 g, purchased from Beijing Vital River Lab (Beijing, People's Republic of China).
Formulation: Prepare 1.5 mg/ml and 0.6 mg/ml compound solution in […](20% HPβCD) for PO and IV respectively, dosing immediately after preparation.
Administration: PO and IV;

FGFR3 = target: T2, FGFR3 (Homo sapiens, UniProt P22607); test: FGFR3 Biochemical Caliper Assay (KinEASE-TK kit); details: ratio FGFR3/FGFR2 of the biochemical assay
T2 construct: purchased Carna 08-135
T2 sequence (P22607 23-806): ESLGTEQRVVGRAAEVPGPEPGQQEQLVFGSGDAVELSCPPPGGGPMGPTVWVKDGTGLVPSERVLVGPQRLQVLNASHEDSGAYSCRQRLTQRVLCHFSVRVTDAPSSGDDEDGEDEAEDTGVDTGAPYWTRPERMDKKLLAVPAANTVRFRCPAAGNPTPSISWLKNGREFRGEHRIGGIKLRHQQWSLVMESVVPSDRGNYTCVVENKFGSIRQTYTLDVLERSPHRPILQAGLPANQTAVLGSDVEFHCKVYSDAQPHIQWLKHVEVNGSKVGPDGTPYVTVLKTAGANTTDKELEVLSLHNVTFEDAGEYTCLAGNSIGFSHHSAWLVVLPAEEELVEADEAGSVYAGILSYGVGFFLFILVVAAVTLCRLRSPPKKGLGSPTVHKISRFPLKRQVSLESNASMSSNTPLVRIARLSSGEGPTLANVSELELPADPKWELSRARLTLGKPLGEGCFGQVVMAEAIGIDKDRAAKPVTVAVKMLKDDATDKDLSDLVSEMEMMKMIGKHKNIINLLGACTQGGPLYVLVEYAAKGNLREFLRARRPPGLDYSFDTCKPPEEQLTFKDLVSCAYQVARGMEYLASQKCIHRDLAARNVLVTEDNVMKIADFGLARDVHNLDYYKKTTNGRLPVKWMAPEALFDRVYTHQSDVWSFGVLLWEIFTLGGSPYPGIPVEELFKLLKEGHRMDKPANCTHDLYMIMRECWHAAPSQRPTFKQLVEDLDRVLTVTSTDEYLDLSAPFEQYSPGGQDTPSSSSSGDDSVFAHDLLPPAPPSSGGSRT
In short: as §1

FGFR2 = target: T3, FGFR2 (Homo sapiens, UniProt P21802); test: FGFR2 Biochemical Caliper Assay (KinEASE-TK kit); details: 0.07 nM FGFR2; compound incubated with protein 10 min, reaction 45 min at RT; read-out: FGFR2 Cliper IC50
T3 construct: purchased Carna 08-134
T3 sequence (P21802 22-821): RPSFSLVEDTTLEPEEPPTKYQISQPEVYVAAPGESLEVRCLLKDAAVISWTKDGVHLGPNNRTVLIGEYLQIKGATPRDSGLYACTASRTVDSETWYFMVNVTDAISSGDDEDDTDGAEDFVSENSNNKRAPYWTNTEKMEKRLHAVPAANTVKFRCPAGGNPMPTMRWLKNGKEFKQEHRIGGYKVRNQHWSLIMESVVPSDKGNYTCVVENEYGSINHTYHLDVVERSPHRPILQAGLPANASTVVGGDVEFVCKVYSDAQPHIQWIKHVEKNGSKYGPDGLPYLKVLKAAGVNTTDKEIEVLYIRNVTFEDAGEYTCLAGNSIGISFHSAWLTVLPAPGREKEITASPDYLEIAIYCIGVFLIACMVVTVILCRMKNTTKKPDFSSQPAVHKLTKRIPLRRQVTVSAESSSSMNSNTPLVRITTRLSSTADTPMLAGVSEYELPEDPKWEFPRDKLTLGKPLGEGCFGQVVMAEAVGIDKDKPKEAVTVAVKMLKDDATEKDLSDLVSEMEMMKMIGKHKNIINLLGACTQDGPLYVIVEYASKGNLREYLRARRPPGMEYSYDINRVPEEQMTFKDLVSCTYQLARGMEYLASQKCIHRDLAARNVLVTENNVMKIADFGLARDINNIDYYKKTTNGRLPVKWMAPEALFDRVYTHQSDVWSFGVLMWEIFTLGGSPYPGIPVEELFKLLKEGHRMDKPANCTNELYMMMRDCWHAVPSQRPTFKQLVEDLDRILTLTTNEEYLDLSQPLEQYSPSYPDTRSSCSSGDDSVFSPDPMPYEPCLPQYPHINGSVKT

T1 sequence (P11362 22-822): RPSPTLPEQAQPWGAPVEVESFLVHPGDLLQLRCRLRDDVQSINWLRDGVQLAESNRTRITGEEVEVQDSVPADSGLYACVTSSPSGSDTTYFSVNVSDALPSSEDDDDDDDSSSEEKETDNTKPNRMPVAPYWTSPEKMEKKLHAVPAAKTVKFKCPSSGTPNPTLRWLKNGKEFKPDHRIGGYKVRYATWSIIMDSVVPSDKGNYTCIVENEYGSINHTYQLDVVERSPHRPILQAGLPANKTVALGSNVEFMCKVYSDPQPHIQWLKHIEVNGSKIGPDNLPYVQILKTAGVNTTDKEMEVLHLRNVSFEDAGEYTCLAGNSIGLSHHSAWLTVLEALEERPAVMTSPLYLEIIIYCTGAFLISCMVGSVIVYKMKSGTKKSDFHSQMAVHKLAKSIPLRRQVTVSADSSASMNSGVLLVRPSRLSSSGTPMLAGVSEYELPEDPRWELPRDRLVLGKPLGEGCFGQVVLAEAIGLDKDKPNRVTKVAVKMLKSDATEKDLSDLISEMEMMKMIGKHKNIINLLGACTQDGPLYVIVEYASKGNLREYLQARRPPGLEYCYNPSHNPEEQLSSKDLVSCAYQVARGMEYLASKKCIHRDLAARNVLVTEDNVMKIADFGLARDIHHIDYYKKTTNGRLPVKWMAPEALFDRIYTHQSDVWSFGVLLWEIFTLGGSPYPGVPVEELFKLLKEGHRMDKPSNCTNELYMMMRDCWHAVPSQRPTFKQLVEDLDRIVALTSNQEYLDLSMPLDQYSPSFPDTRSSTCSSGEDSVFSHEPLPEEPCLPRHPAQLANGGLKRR

Compound	IC50 (SNU16 cells) [nM]	clearance [1] [mL/min/kg]	AUC(0-inf) [1] [ng·h/mL]	half-life [1] [h]	Cmax [1] [ng/mL]	IC50 (FGFR2) [nM]	Selectivity FGFR1/FGFR2 (FGFR1)	Selectivity FGFR3/FGFR2 (FGFR3)
C=CC(=O)Nc1ccc(-c2c(-c3ccc(C(=O)NCC(F)(F)F)c(OC)c3)c3c(N)ncc(C#N)c3n2C)cc1 [Compound 28, 4-(2-(4-acrylamidophenyl)-4-amino-7-cyano-1-methyl-1H-pyrrolo[3,2-c]pyridin-3-yl)-2-methoxy-N-(2,2,2-trifluoroethyl)benzamide]	≤ 10	19	1240	0.98	509	< 5	A (Selectivity of FGFR1/FGFR2 less than 500 but greater than or equal to 300)	B (Selectivity of FGFR3/FGFR2 less than 100 but greater than or equal to 25)
C=C(F)C(=O)Nc1ccc(-c2c(-c3ccc(C(=O)NCC(F)(F)F)c(OC)c3)c3c(N)ncc(C#N)c3n2C)cc1 [Compound 96, 4-(4-amino-7-cyano-2-(4-(2-fluoroacrylamido)phenyl)-1-methyl-1H-pyrrolo[3,2-c]pyridine-3-yl)-2-methoxy-N-(2,2,2-trifluoroethyl)benzamide]	≤ 10	3.1	2700	6	621	< 5	A+ (Selectivity of FGFR1/FGFR2 greater or equal to 500)	A+ (Selectivity of FGFR3/FGFR2 greater or equal to 150)
C=C(F)C(=O)Nc1ccc(-c2nn3ncnc(N)c3c2-c2ccc(C(=O)NC3CC(F)C3)c(OC)c2)cc1 (stereo not shown) [Compound 185, 4-(4-amino-6-(4-(2-fluoroacrylamido)phe-nyl)pyrazolo[5,1-f][1,2,4]triazin-5-yl)-N-(3-fluorocyclobutyl)-2-methoxybenzamide]	≤ 10	26	1550	3	507	> 10	A+ (Selectivity of FGFR1/FGFR2 greater or equal to 500)	A+ (Selectivity of FGFR3/FGFR2 greater or equal to 150)
C=C(F)C(=O)Nc1ccc(-c2nn3ncnc(N)c3c2-c2ccc(C(=O)NC3CC3(F)F)c(OC)c2)cc1 (stereo not shown) [Compound 193, 4-(4-amino-6-(4-(2-fluoroacrylamido)phe-nyl)pyrazolo[5,1-f][1,2,4]triazin-5-yl)-N-(2,2-difluorocyclopropyl)-2-methoxybenzamide]	≤ 10	8.4	4570	3.6	1390	5 to 10	A+ (Selectivity of FGFR1/FGFR2 greater or equal to 500)	A+ (Selectivity of FGFR3/FGFR2 greater or equal to 150)
C=C(F)C(=O)Nc1ccc(-c2[nH]c3c(C#N)cnc(N)c3c2-c2ccc(C(=O)NC3CC3)c(OC)c2)cc1 [Compound 235, 4-(4-amino-7-cyano-2-(4-(2-fluoroacrylamido)phe-nyl)-1H-pyrrolo[3,2-c]pyridin-3-yl)-N-cyclopropyl-2-methoxybenzamide]	≤ 10	5.4	2070	1.3	442	< 5	A+ (Selectivity of FGFR1/FGFR2 greater or equal to 500)	A+ (Selectivity of FGFR3/FGFR2 greater or equal to 150)

More lines, main results first:

IC50 (SNU16 cells) [nM]	clearance [1] [mL/min/kg]	AUC(0-inf) [1] [ng·h/mL]	half-life [1] [h]	Cmax [1] [ng/mL]	IC50 (FGFR2) [nM]	Compound	Selectivity FGFR1/FGFR2 (FGFR1)	Selectivity FGFR3/FGFR2 (FGFR3)
≤ 10	17	3760	2.4	1180	> 10	C=C(F)C(=O)Nc1ccc(-c2nn3ncnc(N)c3c2-c2ccc(C(=O)NC3(C(F)(F)F)CC3)c(OC)c2)cc1 [Compound 308]	C (Selectivity of FGFR1/FGFR2 less than 200 but greater than or equal to 100)	A (Selectivity of FGFR3/FGFR2 less than 150 but greater than or equal to 100)
≤ 10	11	3100	2.6	957	5 to 10	C=C(F)C(=O)Nc1ccc(-c2nn3ncnc(N)c3c2-c2ccc(C(=O)NCC3(C(F)(F)F)CC3)c(OC)c2)cc1 [Compound 309]	A+ (Selectivity of FGFR1/FGFR2 greater or equal to 500)	A+ (Selectivity of FGFR3/FGFR2 greater or equal to 150)
≤ 10	6.1	1820	2.4	509	> 10	C=C(F)C(=O)Nc1ccc(-c2nn3ncnc(N)c3c2-c2ccc(C(=O)NC34CC(F)(C3)C4)c(OC)c2)cc1 [Compound 330]	A+ (Selectivity of FGFR1/FGFR2 greater or equal to 500)	A+ (Selectivity of FGFR3/FGFR2 greater or equal to 150)

Reference: patent publication US20240383905A1, “FGFR INHIBITORS AND METHODS OF USE THEREOF” (3H PHARMACEUTICALS CO., LTD., priority 2021, published 2024)
